Where a name gives a salt, the structure may show the parent alone.
Target: purified human Factor XIa (Homo sapiens (Human), UniProt P03951)
Test: Factor XIa chromogenic substrate (S-2366) inhibition assay
Type: biochemical
Protocol: The effectiveness of compounds of the present invention as inhibitors of the coagulation factors XIa, VIIa, IXa, Xa, XIIa, plasma kallikrein or thrombin, can be determined using a relevant purified serine protease, respectively, and an appropriate synthetic substrate. The rate of hydrolysis of the chromogenic or fluorogenic substrate by the relevant serine protease was measured both in the absence and presence of compounds of the present invention. […] A decrease in the rate of absorbance or fluorescence change in the presence of inhibitor is indicative of enzyme inhibition. Such methods are known to one skilled in the art. The results of this assay are expressed as the inhibitory constant, Ki. […] JT Baker or Fisher Scientific). […] Values of Ki were determined by allowing the protease to react with the substrate in the presence of the inhibitor. Reactions were allowed to go for periods of 20-180 minutes (depending on the protease) and the velocities (rate of absorbance or fluorescence change versus time) were measured.

[1] = substrate S-2366, activity ranges, Table A

Sequence of purified human Factor XIa (P03951 388-625): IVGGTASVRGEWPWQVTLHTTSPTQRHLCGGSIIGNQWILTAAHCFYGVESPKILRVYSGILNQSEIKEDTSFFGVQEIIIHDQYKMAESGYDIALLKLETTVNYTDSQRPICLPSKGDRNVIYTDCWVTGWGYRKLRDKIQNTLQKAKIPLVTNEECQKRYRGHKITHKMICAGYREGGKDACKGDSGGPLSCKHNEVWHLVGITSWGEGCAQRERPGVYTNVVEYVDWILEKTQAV
Sequence of purified human Factor XIa (P03951 19-387 partner): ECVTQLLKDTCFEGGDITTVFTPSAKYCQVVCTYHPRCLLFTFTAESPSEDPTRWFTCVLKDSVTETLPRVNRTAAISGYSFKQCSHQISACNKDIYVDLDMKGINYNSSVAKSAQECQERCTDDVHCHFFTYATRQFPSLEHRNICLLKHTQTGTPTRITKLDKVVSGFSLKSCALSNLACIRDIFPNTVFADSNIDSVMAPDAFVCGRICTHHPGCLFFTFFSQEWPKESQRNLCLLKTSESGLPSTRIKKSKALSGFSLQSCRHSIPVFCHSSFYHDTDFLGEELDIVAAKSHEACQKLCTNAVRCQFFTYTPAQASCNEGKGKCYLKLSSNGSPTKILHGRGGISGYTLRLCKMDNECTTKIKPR

Row | SMILES | Ki [1] [nM] | Ki (substrate S-2366, Table 1) [nM]
1 | COC(=O)[C@H]1CC[C@H](NC(=O)C2c3cccc(N4CCC(N5CCCC5)CC4)c3CCN2C(=O)/C=C/c2c(-n3cnnn3)ccc(Cl)c2F)CC1 (mixture of isomers) [Example 232] | 5 to 10 | –
2 | O=C(O)c1ccc(NC(=O)C2c3cccc(N4CCN(C(=O)OCc5ccccc5)CC4=O)c3CCN2C(=O)/C=C/c2c(-n3cnnn3)ccc(Cl)c2F)cc1 (racemic) [Example 52] | – | < 5
3 | O=C1CCC2(CCN(c3cccc4c3CCN(C(=O)/C=C/c3c(-n5cnnn5)ccc(Cl)c3F)C4C(=O)Nc3ccc(C(=O)O)cc3)CC2)O1 (racemic) [Example 145] | < 5 | –
4 | COC(=O)Nc1ccc(NC(=O)C2c3cccc(N4CCC(N5CCCC5)CC4)c3CCN2C(=O)/C=C/c2c(-n3cnnn3)ccc(Cl)c2F)cc1 (racemic) [Example 89] | < 5 | –
5 | CCOC(=O)c1ccc(NC(=O)C2c3cccc(N4CC5CN(C)CC5C4)c3CCN2C(=O)C=Cc2c(-n3cnnn3)ccc(Cl)c2F)cc1 (stereo not drawn) [Example 253] | 5 to 10 | –
6 | COC(=O)Nc1ccc(NC(=O)C2c3cccc(N4CCC(N5CCCC5)CC4)c3CCN2C(=O)C=Cc2c(-n3cnnn3)ccc(Cl)c2F)cc1 (stereo not drawn) [Example 98] | – | 632
7 | O=C(O)c1ccc(NC(=O)[C@@H]2c3cccc(N4CCC5(CC4)OCCO5)c3CCN2C(=O)/C=C/c2c(-n3cnnn3)ccc(Cl)c2F)cc1 [Example 143] | < 5 | –
8 | CCOC(=O)c1ccc(NC(=O)C2c3cccc(N4CCC(N5CCCC5)CC4)c3CCN2C(=O)C=Cc2c(-n3cnnn3)ccc(Cl)c2F)cc1 (stereo not drawn) [Example 93] | 5 to 10 | –
9 | O=C(O)c1ccc(NC(=O)C2c3cccc(N4CCC(N5CCCC5)CC4)c3CCN2C(=O)/C=C/c2cc(Cl)ccc2C(F)F)cc1 (racemic) [Example 158] | < 5 | –
10 | O=C(NC1CC1)c1ccc(NC(=O)C2c3cccc(N4CCNCC4)c3CCN2C(=O)/C=C/c2cc(Cl)c(F)cc2-n2cnnn2)cc1 (racemic) [Example 67] | 100 to 500 | –
11 | O=C(Nc1ccc(F)cc1)C1c2cccc(N3CCC(N4CCCC4)CC3)c2CCN1C(=O)C=Cc1c(-n2cnnn2)ccc(Cl)c1F (stereo not drawn) [Example 90] | – | 314
12 | CC(=O)c1ccc(Cl)c(F)c1/C=C/C(=O)N1CCc2c(cccc2N2CCS(=O)(=O)CC2)C1C(=O)Nc1ccc(C(=O)O)cc1 (racemic) [Example 215] | – | < 5
13 | O=C(O)c1ccc(NC(=O)C2c3cccc(N4CCNCC4)c3CCN2C(=O)/C=C/c2c(-n3cnnn3)ccc(Cl)c2F)cc1 (stereo not drawn) [Example 3] | < 5 | –
14 | CCOC(=O)c1cc(C)n(-c2cccc3c2CCN(C(=O)/C=C/c2c(-n4cnnn4)ccc(Cl)c2F)C3C(=O)Nc2ccc(F)cc2)n1 (stereo not drawn) [Example 242, (E)-Ethyl 1-(2-(3-(3-chloro-2-fluoro-6-(1H-tetrazol-1-yl)phenyl)acryloyl)-1-(4-fluorophenylcarbamoyl)-1,2,3,4-tetrahydroisoquinolin-5-yl)-5-methyl-1H-pyrazole-3-carboxylate] | 100 to 500 | –
15 | N#Cc1ccc(Cl)c(F)c1C=CC(=O)N1CCc2c(cccc2N2CCC(N3CCCC3)CC2)C1C(=O)Nc1ccc(C(=O)O)cc1 (stereo not drawn) [Example 164] | < 5 | –
16 | CCOC(=O)c1ccc(NC(=O)[C@H]2c3cccc(N4CCC(N(C)C)CC4)c3CCN2C(=O)/C=C/c2c(-n3cnnn3)ccc(Cl)c2F)cc1 [Example 128] | – | 133
17 | COC(=O)N1CCN(c2cccc3c2CCN(C(=O)/C=C/c2c(-n4cnnn4)ccc(Cl)c2F)C3C(=O)Nc2ccc(F)cc2)CC1 (stereo not drawn) [Example 25] | 5 to 10 | –
18 | CN(C)C1CCN(c2cccc3c2CCN(C(=O)/C=C/c2c(-n4cnnn4)ccc(Cl)c2F)C3C(=O)Nc2ccc(C(=O)OC(C)(C)C)cc2)CC1 (racemic) [Example 91] | 5 to 10 | –
19 | CN(C)[C@@H]1CCN(c2cccc3c2CCN(C(=O)/C=C/c2c(-n4cnnn4)ccc(Cl)c2F)[C@H]3C(=O)Nc2ccc(C(=O)O)cc2)C1 [Example 209, 4-((R)-2-((E)-3-(3-Chloro-2-fluoro-6-(1H-tetrazol-1-yl)phenyl)acryloyl)-5-((R)-3-(dimethylamino)pyrrolidin-1-yl)-1,2,3,4-tetrahydroisoquinoline-1-carboxamido)benzoic acid, bis TFA salt] | < 5 | –
20 | O=C(NCCc1c[nH]cn1)c1ccc(NC(=O)C2c3cccc(N4CCNCC4)c3CCN2C(=O)/C=C/c2cc(Cl)c(F)cc2-n2cnnn2)cc1 (racemic) [Example 68] | 100 to 500 | –
21 | CN1CCN(c2cccc3c2CC(C)(C)N(C(=O)/C=C/c2c(-n4cnnn4)ccc(Cl)c2F)[C@@H]3C(=O)Nc2ccc(C(=O)O)cc2)CC1 [Example 201] | < 5 | –
22 | CN(C)CCN1CCN(c2cccc3c2CCN(C(=O)/C=C/c2c(-n4cnnn4)ccc(Cl)c2F)C3C(=O)Nc2ccc(C(=O)O)cc2)CCC1=O (racemic) [Example 263] | < 5 | –
23 | CN1CCN(c2cccc3c2CCN(C(=O)/C=C/c2c(-n4cnnn4)ccc(Cl)c2F)C3C(=O)Nc2ccc(C(=O)OC(C)(C)C)cc2)C(=O)C1 (stereo not drawn) [Example 57, (E)-tert-butyl 4-(2-(3-(3-chloro-2-fluoro-6-(1H-tetrazol-1-yl)phenyl)acryloyl)-5-(4-methyl-2-oxopiperazin-1-yl)-1,2,3,4-tetrahydroisoquinoline-1-carboxamido)benzoate] | 5 to 10 | –

Row | SMILES | Ki [1] [nM] | Ki (substrate S-2366, Table 1) [nM]
24 | O=C(O)c1ccc(NC(=O)[C@@H]2c3cccc(N4CCC(C(=O)N5CCCC5)CC4)c3CCN2C(=O)/C=C/c2c(-n3cnnn3)ccc(Cl)c2F)cc1 [Example 133] | < 5 | –
25 | COC(=O)N1CCN(c2cccc3c2CCN(C(=O)/C=C/c2c(-n4cnnn4)ccc(Cl)c2F)C3C(=O)Nc2ccc(C#N)cc2)CC1 (stereo not drawn) [Example 26] | 5 to 10 | –
26 | CN1CCN(c2cccc3c2CCN(C(=O)C=Cc2c(-n4cnnn4)ccc(Cl)c2F)C3C(=O)Nc2ccc(C(=O)O)cc2)CC1 (stereo not drawn) [compound 31] | < 5 | –
27 | CC(C)NC(=O)C1c2cccc(N3CCC(N4CCCC4)CC3)c2CCN1C(=O)/C=C/c1c(-n2cnnn2)ccc(Cl)c1F (racemic) [Example 240] | – | 47.1
28 | CC(C)COC(=O)c1ccc(NC(=O)C2c3cccc(N4CCC(N5CCCC5)CC4)c3CCN2C(=O)/C=C/c2c(-n3cnnn3)ccc(Cl)c2F)cc1 (racemic) [Example 123] | < 5 | –
29 | CN1CCN(c2cccc3c2CCN(C(=O)/C=C/c2c(-n4cnnn4)ccc(Cl)c2F)C3C(=O)Nc2ccc(C(=O)O)cc2)CC1 (stereo not drawn) [Example 18] | < 5 | –
30 | CCCCOC(=O)c1ccc(NC(=O)C2c3cccc(N4CCC(N5CCCC5)CC4)c3CCN2C(=O)C=Cc2c(-n3cnnn3)ccc(Cl)c2F)cc1 (stereo not drawn) [Example 113] | 100 to 500 | –
31 | O=C(O)c1ccc(NC(=O)C2c3cccc(N4CCC(c5ccccc5)CC4)c3CCN2C(=O)/C=C/c2c(-n3cnnn3)ccc(Cl)c2F)cc1 (racemic) [Example 95] | < 5 | –
32 | CCOC(=O)c1ccc(NC(=O)C2c3cccc(N4CCOCC4=O)c3CCN2C(=O)/C=C/c2c(-n3cnnn3)ccc(Cl)c2F)cc1 (racemic) [Example 51] | 5 to 10 | –
33 | CC(=O)NCCNC(=O)c1ccc(NC(=O)C2c3cccc(N4CCNCC4)c3CCN2C(=O)/C=C/c2cc(Cl)c(F)cc2-n2cnnn2)cc1 (racemic) [Example 72] | 500 to 5000 | –
34 | CN(C)CCNC(=O)N1CCCN(c2cccc3c2CCN(C(=O)/C=C/c2c(-n4cnnn4)ccc(Cl)c2F)C3C(=O)Nc2ccc(C(=O)O)cc2)CC1 (racemic) [Example 261] | < 5 | –
35 | O=C(Nc1ccc(F)cc1)C1c2cccc(N3CCNCC3)c2CCN1C(=O)/C=C/c1c(-n2cnnn2)ccc(Cl)c1F (stereo not drawn) [Example 5] | 5 to 10 | –
36 | O=C(O)c1ccc(NC(=O)C2c3cccc(N4CCNCC4)c3CCN2C(=O)/C=C/c2cc(Cl)c(F)cc2-n2cnnn2)cc1 (stereo not drawn) [Example 65, (E)-4-(2-(3-(5-chloro-4-fluoro-2-(1H-tetrazol-1-yl)phenyl)acryloyl)-5-(piperazin-1-yl)-1,2,3,4-tetrahydroisoquinoline-1-carboxamido)benzoic acid, bis TFA Salt] | 5 to 10 | –
37 | CCOC(=O)c1ccc(NC(=O)[C@H]2c3cccc(N4CCCCC4=O)c3CCN2C(=O)/C=C/c2c(-n3cnnn3)ccc(Cl)c2F)cc1 [compound 44] | 5 to 10 | –
38 | O=C(Nc1ccc(Cl)cc1)C1c2cccc(N3CCC(N4CCCC4)CC3)c2CCN1C(=O)C=Cc1c(-n2cnnn2)ccc(Cl)c1F (stereo not drawn) [Example 112] | < 5 | –
39 | CC(C)(C)OC(=O)N1CCN(c2cccc3c2CCN(C(=O)/C=C/c2c(-n4cnnn4)ccc(Cl)c2F)C3C(=O)Nc2ccc3cnn(C(=O)OC(C)(C)C)c3c2)CC1 (stereo not drawn) [Example 10] | 5 to 10 | –
40 | CCOC(=O)c1ccc(NC(=O)[C@@H]2c3cccc(N4CCN(C)CC4)c3CC(C)(C)N2C(=O)/C=C/c2c(-n3cnnn3)ccc(Cl)c2F)cc1 [Example 203] | 5 to 10 | –
41 | CN1CCN(c2cccc3c2CCN(C(=O)C=Cc2c(-n4cnnn4)ccc(Cl)c2F)C3C(=O)Nc2ccc(C(=O)O)cc2)CC1 (stereo not drawn) [compound 30] | 100 to 500 | –
42 | O=C(O)c1ccc(NC(=O)C2c3cccc(N4CCC(N5CCCC5)CC4)c3CCN2C(=O)/C=C/c2c(-n3cnnn3)ccc(Cl)c2F)cc1 (stereo not drawn) [Example 80, (E)-4-(2-(3-(3-Chloro-2-fluoro-6-(1H-tetrazol-1-yl)phenyl)acryloyl)-5-(4-(pyrrolidin-1-yl)piperidin-1-yl)-1,2,3,4-tetrahydroisoquinoline-1-carboxamido)benzoic acid, bis TFA Salt] | < 5 | –
43 | O=C(O)c1ccc(NC(=O)C2c3cccc(N4CCC(N5CCCC5)CC4)c3CCN2C(=O)C=Cc2c(-n3cnnn3)ccc(Cl)c2F)cc1 (stereo not drawn) [Example 88] | 5 to 10 | –
44 | CCOC(=O)c1ccc(NC(=O)C2c3cccc(N4CCOCC4)c3CCN2C(=O)/C=C/c2c(-n3cnnn3)ccc(Cl)c2F)cc1 (racemic) [Example 63] | – | 34.5
45 | CN1CCN(c2cccc3c2CCN(C(=O)/C=C/c2c(-n4cnnn4)ccc(Cl)c2F)C3C(=O)Nc2ccc(C#N)cc2)CC1 (stereo not drawn) [Example 20] | 5 to 10 | –
